Where two headings read alike, the source gives them in different places. Marks after values point to notes of the source that are not given here. Peptide text beside a SMILES is read from it. * marks the point of attachment. Levofloxacinoyl = C[C@H]1COc2c(N3CCN(C)CC3)c(F)cc3c(=O)c(C(=O)*)cn1c23

Data on five compounds can be found in article PMC4166900, “Covalent modification of a ten-residue cationic antimicrobial peptide with levofloxacin” (Frontiers in Chemistry, 2014).

Series [1] deals with B. cereus membranes. In words: DiSC(3)5 membrane depolarization assay. The settings on record: B. cereus 2 × 10^7 CFU/mL; 10 mM NaPO4 pH 7.4; 33 μM P4LC and Pep-4, 126 μM Pep-4/LVFX, 93 μM LVFX; melittin 33 μM = maximal; monitored 30 min; triplicate. The class given is cell-based. As to the method:
(§1) Enumerated frozen aliquots of E. coli and B. cereus cells were thawed and washed 3x with buffer (10 mM NaPO4, pH 7.4). The washed cells were diluted in 10 mM NaPO4 buffer containing 10 ug/mL DiSC(3)5 to afford a concentration of 4 × 10^7 CFU/mL. Bacterial suspension was added to the wells of a black polypropylene microtiter plate (Greiner Bio-One) in 100 μL aliquots, and fluorescence was monitored (rt, with lid on) using a SpectraMax Gemini EM plate-reading fluorometer (622 nmex/ 670 nmem) until fluorescence quenching stabilized and maximal DiSC(3)5 uptake was achieved. […] The final concentrations of each assessed compound in the wells were 33 μM (P4LC and Pep-4), 126 μM (Pep-4/LVFX), and 93 μM (LVFX), while final bacterial concentrations were 2 × 10^7 CFU/mL. Assays were performed in triplicate for each compound assessed. […] The fluorescence kinetics data sets were normalized by setting emitted fluorescence to 0 at t = 0 s and presenting fluorescence intensity values as a fraction of maximal fluorescence observed for melittin.
(§2) For membrane depolarization and perturbation experiments, fluorescence data was analyzed by comparing best-fit curves (GraphPad Prism). Fluorescence kinetic curves were fit to a polynomial regression model (equation 4) to allow for statistical comparison of the fluorescence data via an F test, with all four best-fit parameters used as criteria. […]

Series [2] concerns E. coli membranes. Briefly: DiSC(3)5 membrane depolarization assay. The class given is cell-based. The conditions noted are these: E. coli 2 × 10^7 CFU/mL; 10 mM NaPO4 pH 7.4; 33 μM P4LC and Pep-4, 126 μM Pep-4/LVFX, 93 μM LVFX; melittin 33 μM = maximal; monitored 30 min; triplicate. How it is done: as §1, §2
The test system of series [3] is B. cereus membranes. In words: SYTOX green membrane perturbation assay. The conditions noted are these: 10 mM NaPO4 pH 7.4, 33 μM P4LC, 33 μM Pep-4, 126 μM Pep-4/LVFX, 93 μM LVFX, melittin = maximal, biological triplicates. The class given is cell-based. How it is done:
(§3) Enumerated frozen aliquots of E. coli and B. cereus cells were thawed and washed 3x with buffer (10 mM NaPO4, pH 7.4). The washed cells were diluted to a concentration of 4 × 10^7 CFU/mL in 10 mM NaPO4 (pH 7.4) buffer containing 5 μM SYTOX Green, and the resulting suspension then stored in the dark for ~20 min. The bacterial suspension was then distributed in 100 μL aliquots to wells of a black polypropylene microtiter plate (Greiner Bio-One). […] The fluorescence of each well was immediately monitored (without the lid) using a SpectraMax Gemini EM plate-reading fluorometer (485/520 nmem). […] A negative control containing only bacteria and SYTOX Green was used to determine background fluorescence, and maximal perturbation of the bacterial cell membranes was established using melittin. The fluorescence kinetics data sets were normalized by setting emitted fluorescence to 0 at t = 0 s and presenting fluorescence intensity values as a fraction of maximal fluorescence observed for melittin.
as §2

The test system of series [4] is E. coli membranes. In words: SYTOX green membrane perturbation assay. The conditions noted are these: 10 mM NaPO4 pH 7.4, 33 μM P4LC, 33 μM Pep-4, 126 μM Pep-4/LVFX, 93 μM LVFX, biological triplicates. It is filed as cell-based. How it is done: as §3, §2
The nature of series [5]: Distribution coefficient (1-octanol / 10 mM NaPO4 pH 7.4). The conditions noted are these: for logD at 10 min: pH 7.4. How it is done: In these experiments, P4LC, Pep-4 or free LVFX dissolved in 100 μL of 10 mM NaPO4 (pH 7.4) buffer was combined with 100 μL of 1-Octanol in a 1.5 mL low binding polypropylene microcentrifuge tube (Corning). Each tube was vortexed for 10 min and the contained solvent allowed to settle. […] The maximal concentrations of Pep-4 and P4LC in the calibration curves were also established using amino acid analysis (UC Davis Genome Center Proteomics Core Facility). […] Indolicidin and melittin were used as reference peptides in these studies. […] The D7.4 values generated for P4LC, Pep-4, LVFX, indolicidin, and melittin were calculated (equation 5) based on their respective concentrations in the aqueous phase ([peptide]PO4buffer) of the water/octanol biphasic system and their concentrations in the initial stock solution ([peptide]total). Values are averaged from six replicates.
(5) logD7.4=log(([peptide]total−[peptide]PO4buffer)/([peptide]PO4buffer)) =log ([peptide]octanol/[peptide]PO4buffer)
The concentration ratios of each compound between the two liquid phases were used to establish distribution coefficients (D7.4). Indolicidin and melittin were used as reference peptides in these studies.

The test system of series [6] is B. cereus (#11778).
Experimental: (§4) Frozen enumerated aliquots of bacteria were thawed and diluted into sterile buffer to a bacterial concentration of 2 × 10^6 CFU/mL. Wells of a 96-well polypropylene microtiter plate (Greiner Bio-One) were charged with 50 μL aliquots of buffer solutions containing serially diluted peptide, conjugate, or drug followed by 50 μL aliquots of diluted bacterial cells. Assays for each compound were prepared in triplicate. Control wells were prepared where the peptide/conjugate/drug solution was replaced with an equal volume of buffer alone. Following addition of bacteria, the microtiter plates were incubated for 3 h at either 37°C (E. coli) or 30°C (B. cereus). […] Plates were then immediately placed in a SpectraMax Gemini EM plate-reading fluorometer for overnight monitoring of fluorescence (530 nmex/590 nmem) at either 37°C (E. coli) or 30°C (B. cereus) with intermittent shaking. Onset time of half maximal fluorescence (T0.5) observed for each well was computed using the microplate data analysis software. In order to determine bacterial survival, it was necessary to establish correlations between bacterial concentration (CFU/mL) and T0.5 values. Therefore, standard curve equations were generated in preliminary experiments using bacterial suspensions serially diluted (~10^6 CFU/mL—10^3 CFU/mL) in each of the three buffers used in the antibacterial assays.
(§5) (2) log(CFU/mLB.cereus)=−1.00 × 10^−4(T0.5)+Yint
(§6) (3) Bacterial Survival=Smin+(Smax−Smin)/ (1+10^log(EC50)−log(PC)∗HS)
(§7) Assays were conducted under three different ionic strength (μ) buffer conditions in order to assess the effect salt concentration had on antibacterial effectiveness. The lowest ionic strength buffer used was 10 mM NaPO4, pH 7.4, which corresponded to 26 mM total ionic strength. […] Bacterial survival results were plotted against the log of the concentration of conjugate, peptide, or free drug. EC50 values for each assessed compound were calculated by fitting the survival data to equation 3, which models typical sigmoidal dose-response behavior using a variable Hill slope. An F test was used to assess statistical significance, with the alpha level set to 0.05.
The subject of series [7] is E. coli (#25922). In words: microbe, parasite or virus in culture. The settings on record: Escherichia coli, 3 h, pH 7.4, read-out: EC50 (95% confidence interval), E. coli, resazurin read-out, triplicate.
Experimental: as §4
(§8) (1) log(CFU/mLE.coli)=−2.00 × 10^−4(T0.5)+Yint
as §6, §7
For series [8], the system named is B. cereus (#11778). Briefly: microbe, parasite or virus in culture. The conditions noted are these: Bacillus cereus, 3 h.
Experimental: as §4, §5, §6, §7
The subject of series [9] is E. coli (#25922). The settings on record: for EC50: read-out: EC50 (95% confidence interval), E. coli, resazurin read-out, triplicate. (Resazurin is reduced to fluorescent resorufin, in cell work by metabolically active cells.)
Experimental: as §4, §8, §6, §7
[10] abbreviates: read-out: EC50 (95% confidence interval), B. cereus, ionic strength μ2 = 111 mM (10 mM NaPO4 : cation-adjusted PBS 1:1, pH 7.4), 3 h at 30°C, resazurin read-out, triplicate, * = estimated, lower survival boundary set to 0.
Setting [11] is: ionic strength μ1 = 26 mM (10 mM NaPO4, pH 7.4), 3 h incubation at 37°C.
Setting [12] is: ionic strength μ2 = 111 mM (10 mM NaPO4 : cation-adjusted PBS 1:1, pH 7.4), 3 h at 37°C.
The mark [13] stands for this setting: ionic strength μ3 = 167 mM (cation-adjusted PBS, pH 7.4), 3 h at 37°C, * = estimated, lower survival boundary set to 0.

Regarding `C[C@H]1COc2c(N3CCN(C)CC3)c(F)cc3c(=O)c(C(=O)O)cn1c23` [LVFX, Levofloxacin], the “mean maximal DiSC(3)5 fluorescence relative to melittin (membrane depolarization)” value in series [1] was determined as 2.5%; in [2], 8.4%. Moreover, in [3], the “SYTOX Green fluorescence increase relative to melittin (membrane perturbation)” value is reported as “No increase in fluorescence”. In addition, the “mean maximal SYTOX Green fluorescence relative to melittin (membrane perturbation)” value in series [4] is reported as “No increase in fluorescence”. Also, the “D7.4 fold greater than P4LC” value in series [5] (1-octanol / 10 mM NaPO4 pH 7.4, ratio of D7.4 values) is “about 4.5 fold”. Also, the EC50 (usually the concentration needed to bring the measured effect to its halfway point) was 591 nM in [6] (setting [10]); 2.81 nM in [7] (setting [11]); 2.23 nM in series [7] (setting [12]); 2.77 nM in series [7] (setting [13]); 981 nM in series [8] (pH 7.4, read-out: EC50 (95% confidence interval)); 212 nM in [8] (pH 7.4, read-out: EC50 (95% confidence interval), B. cereus, ionic strength μ1 = 26 mM (10 mM NaPO4, pH 7.4), 3 h incubation at 30°C, resazurin read-out, triplicate).

Regarding `C[C@H]1COc2c(N3CCN(C)CC3)c(F)cc3c(=O)c(C(=O)NCCCC[C@H](NC(=O)[C@H](CCCCNC(=O)c4cn5c6c(c(N7CCN(C)CC7)c(F)cc6c4=O)OC[C@@H]5C)NC(=O)[C@H](CCCNC(=N)N)NC(=O)[C@H](CCCNC(=N)N)NC(=O)[C@H](CO)NC(=O)[C@H](CO)NC(=O)[C@H](CCCNC(=N)N)NC(=O)[C@H](CCCNC(=N)N)NC(=O)CNC(=O)[C@H](CCCNC(=N)N)NC(=O)c4cn5c6c(c(N7CCN(C)CC7)c(F)cc6c4=O)OC[C@@H]5C)C(N)=O)cn1c23` [P4LC] (Levofloxacinoyl-RGRRSSRRK(Levofloxacinoyl)K(Levofloxacinoyl)-NH2), the logD (in general, lipophilicity at a set pH, counting ionised and neutral species) at 10 min in series [5] is -1.65. Also, the EC50 in series [9] (setting [11]) is 16.7 nM; in [9] (setting [12]) it was 1710 nM; in series [9] (setting [13]), 1510 nM; in series [6] (read-out: EC50 (95% confidence interval), B. cereus, ionic strength μ1 = 26 mM (10 mM NaPO4, pH 7.4), 3 h incubation at 30°C, resazurin read-out, triplicate), 21.8 nM; in series [6] (setting [10]), 2170 nM; in series [6] (read-out: EC50 (95% confidence interval), B. cereus, ionic strength μ3 = 167 mM (cation-adjusted PBS, pH 7.4), 3 h at 30°C, resazurin read-out, triplicate, * = estimated, lower survival boundary set to 0), 40000 nM.

Compound `N=C(N)NCCC[C@H](NC(=O)CNC(=O)[C@@H](N)CCCNC(=N)N)C(=O)N[C@@H](CCCNC(=N)N)C(=O)N[C@@H](CO)C(=O)N[C@@H](CO)C(=O)N[C@@H](CCCNC(=N)N)C(=O)N[C@@H](CCCNC(=N)N)C(=O)N[C@@H](CCCCN)C(=O)N[C@@H](CCCCN)C(N)=O` [Pep-4] (H-RGRRSSRRKK-NH2) displayed a logD at 10 min in series [5] of -2.57. Moreover, the “EC50 (95% confidence interval)” value in series [9] (#25922, 3 h, pH 7.4) is given as ~29.4 ^* (21.9–35.4)^* μM. The compound also gave an EC50 in [6] (#11778, 3 h, pH 7.4) of 27.1 nM.

On to `CC[C@H](C)[C@H](N)C(=O)N[C@@H](CC(C)C)C(=O)N1CCC[C@H]1C(=O)N[C@@H](Cc1c[nH]c2ccccc12)C(=O)N[C@@H](CCCCN)C(=O)N[C@@H](Cc1c[nH]c2ccccc12)C(=O)N1CCC[C@H]1C(=O)N[C@@H](Cc1c[nH]c2ccccc12)C(=O)N[C@@H](Cc1c[nH]c2ccccc12)C(=O)N1CCC[C@H]1C(=O)N[C@@H](Cc1c[nH]c2ccccc12)C(=O)N[C@@H](CCCN=C(N)N)C(=O)N[C@@H](CCCN=C(N)N)C(N)=O` [indolicidin], for which the logD at 10 min in series [5] was found to be 2.3.

As to `CC[C@H](C)[C@H](NC(=O)CN)C(=O)NCC(=O)N[C@@H](C)C(=O)N[C@H](C(=O)N[C@@H](CC(C)C)C(=O)N[C@@H](CCCCN)C(=O)N[C@H](C(=O)N[C@@H](CC(C)C)C(=O)N[C@H](C(=O)N[C@H](C(=O)NCC(=O)N[C@@H](CC(C)C)C(=O)N1CCC[C@H]1C(=O)N[C@@H](C)C(=O)N[C@@H](CC(C)C)C(=O)N[C@H](C(=O)N[C@@H](CO)C(=O)N[C@@H](Cc1c[nH]c2ccccc12)C(=O)N[C@H](C(=O)N[C@@H](CCCCN)C(=O)N[C@@H](CCCNC(=N)N)C(=O)N[C@@H](CCCCN)C(=O)N[C@@H](CCCNC(=N)N)C(=O)N[C@@H](CCC(N)=O)C(=O)N[C@@H](CCC(N)=O)C(N)=O)[C@@H](C)CC)[C@@H](C)CC)[C@@H](C)O)[C@@H](C)O)C(C)C)C(C)C` [melittin, Melittin], the logD at 10 min in [5] is -0.46.
